Source: ChEMBL document CHEMBL3124754, “Delivery of a lactose derivative of endomorphin 1 to the brain via the olfactory epithelial pathway” (Bioorg Med Chem Lett, 2014)

Tests used:
Brain [1] = test: Drug uptake in rat brain homogenate at 6.5 uM after 30 mins by LC-MS/MS analysis; assay type: ADME, tissue-based; conditions: in vivo, 0.5 h
[2] = Drug uptake in Sprague-Dawley rat blood at 2 mg/kg administered via nasal cavity after 10 mins; assay type: ADME, organism-based; set-up: dose 2 mg/kg; conditions: inhaled or intranasal, read-out: Drug uptake
[3] = Half life in human plasma by RP-HPLC analysis; assay type: ADME, cell-free
Brain [4] = test: Drug uptake in rat brain homogenate at 18.2 uM after 30 mins by LC-MS/MS analysis; assay type: ADME, tissue-based; conditions: in vivo, 0.5 h
[5] = Drug uptake in Sprague-Dawley rat brain at 2 mg/kg administered via nasal cavity after 10 mins; assay type: ADME, organism-based; set-up: dose 2 mg/kg; conditions: inhaled or intranasal, read-out: Drug uptake
[6] = Drug uptake in Sprague-Dawley rat olfactory bulb at 2 mg/kg administered via nasal cavity after 10 mins; assay type: ADME, organism-based; set-up: dose 2 mg/kg; conditions: inhaled or intranasal, read-out: Drug uptake
Plasma = test: Drug degradation in human plasma assessed as N-lactose endomorphin1 formation after 2 mins by RP-HPLC analysis; assay type: ADME, cell-free

Stability (Plasma) | SMILES | Drug uptake (Brain [1]) | concentration at 10 min [2] | half-life [3] | Drug uptake (Brain [4]) | concentration at 10 min [5] | concentration at 10 min [6]
– | NC(=O)[C@H](Cc1ccccc1)NC(=O)[C@H](Cc1c[nH]c2ccccc12)NC(=O)[C@@H]1CCCN1C(=O)[C@H](Cc1ccc(O)cc1)NC(=O)CCC(=O)N[C@@H]1O[C@H](CO)[C@@H](O[C@@H]2O[C@H](CO)[C@H](O)[C@H](O)[C@H]2O)[C@H](O)[C@H]1O | 3.4 µM | 1.6 nM | 12.9 min | 18.12 µM | 4 nM | 514 nM
Unstable | CC(=O)OC[C@H]1O[C@@H](O[C@H]2[C@H](OC(C)=O)[C@@H](OC(C)=O)[C@H](NC(=O)CCC(=O)N[C@@H](Cc3ccc(O)cc3)C(=O)N3CCC[C@H]3C(=O)N[C@@H](Cc3c[nH]c4ccccc34)C(=O)N[C@@H](Cc3ccccc3)C(N)=O)O[C@@H]2COC(C)=O)[C@H](OC(C)=O)[C@@H](OC(C)=O)[C@H]1OC(C)=O | – | – | – | – | – | –
– | NC(=O)[C@H](Cc1ccccc1)NC(=O)[C@H](Cc1c[nH]c2ccccc12)NC(=O)[C@@H]1CCCN1C(=O)[C@@H](N)Cc1ccc(O)cc1 [ENDOMORPHIN-1] | – | – | 5.9 min | – | – | –
